Values quoted from earlier work in patent US20050107870A1, “Medical device with multiple coating layers” (priority 2003, published 2005).
Structures can show the parent of a compound that is named as a salt.

How the values were obtained:
[1] = hydrophilic magnetically responsive microspheres
cancer cells = settings: exposed to low-level electromagnetic fields present in some North American homes

Q: With COc1cccc2c1C(=O)c1c(O)c3c(c(O)c1C2=O)C[C@@](O)(C(=O)CO)C[C@@H]3O[C@H]1C[C@H](N)[C@H](O)[C@H](C)O1 [adriamycin, doxorubicin hydrochloride] as the compound, how does the “incorporated concentration of therapeutic agent in microspheres” value [1] read?
A: up to 50 wt %

Q: Which “growth of breast cancer cells” value (breast cancer cells; cells exposed to 2 milligauss magnetic fields) does the source give for COc1ccc2[nH]cc(CCNC(C)=O)c2c1 [melatonin] here?
A: inhibit the growth of breast cancer cells

Q: What about the “growth-inhibiting activity on breast cancer cells” value (breast cancer cells; cells in a 12 milliGauss field) of the same compound?
A: essentially reased

Q: Which “ability to halt the proliferation of cancer cells” value (cancer cells) does the source give for CC/C(=C(\c1ccccc1)c1ccc(OCCN(C)C)cc1)c1ccccc1 [tamoxifen] here?
A: lost its ability to halt the proliferation of cancer cells
